Measured values as given in patent US20170224731A1, “METHOD OF PRODUCING LEUKOCYTES USING PTPN2 INHIBITION FOR ADOPTIVE CELL TRANSFER” (MONASH UNIVERSITY, priority 2014, published 2017).

Columns and labels:
[1] = tested on: CD8+ naïve (CD62LhiCD44lo) splenic T cells; assay: Activation of naive CD8+ splenic T cells with plate-bound αCD3/CD28, surface markers by flow cytometry (FIG. 11); format: cell-based, C57BL/6 mice; settings: plate-bound αCD3/CD28 for 48 h, versus vehicle
Text: FIG. 11. […] T cells were stained with fluorochrome-conjugated antibodies to assess CD44, CD62L, IL-2Ra (CD25 subunit) and CD69 surface levels and mean fluorescence intensity (MFI) was monitored by flow cytometry.
T cells were stained with fluorochrome-conjugated antibodies to assess CD44, CD62L, IL-2Rα (CD25 subunit) and CD69 surface levels and mean fluorescence intensity (MFI) was monitored by flow cytometry.

[2] = tested on: Naive (CD62LhiCD44lo) CD8+ LN T cells; assay: Stimulation of naive CD8+ LN T cells with anti-CD3/anti-CD28 ± PTPN2 inhibitor, MFI by flow cytometry (FIG. 14); format: cell-based, C57BL/6 mice; settings: anti-CD3 (5 μg/ml) and anti-CD28 (5 μg/ml) for 60 h, inhibitor at various concentrations
Method: FIG. 14. […] Naive (CD62LhiCD44lo) CD8+ LN T cells (1×105) from C57BL/6 mice were stimulated with plate-bound anti-CD3 (5μg/ml) and anti-CD28 (5μg/m1) for 60 h±PTPN2 inhibitor at various concentrations. Cells were harvested and stained with fluorochrome-conjugated antibodies for CD44, CD69, CD25 and CD62L and mean fluorescence intensity (MFI) analyzed by flow cytometry. Results shown are means±SD for the indicated number of replicates.
CD8^+CD62L^hiCD44^lo naïve LN T cells (1×10^5/well) were stimulated in 96-well round-bottom plates with plate-bound α-CD3 (5 μg/ml) and a-CD28 (5 μg/ml) for 60 h. PTPN2 inhibitor was added twice daily to the culture. To determine the activation status cells were harvested, stained with fluorochrome-conjugated antibodies against α-CD25, α-CD44, α-CD62L and α-CD69 and analysed by flow cytometry.
In FIG. 14, the results of naive)(CD62L^hiCD44^loCD8+ LN T cells (1×105) from C57BL/6 mice that were stimulated with plate-bound anti-CD3 (5 μg/ml) and anti-CD28 (5 μg/ml) for 60 h±PTPN2 inhibitor (compound 8) at various concentrations is shown. Cells were harvested and stained with fluorochrome-conjugated antibodies for CD44, CD69, CD25 and CD62L and mean fluorescence intensity (MFI) analyzed by flow cytometry. Results shown are means±SD for the indicated number of replicates.

[3] = tested on: CD8+ human blood lymphocytes; assay: Human PBMC stimulation with plate-bound α-CD3, T cell activation (CD69, CD154) by flow cytometry (FIG. 16); format: cell-based; settings: human PBMCs, plate-bound α-CD3 (1.25 and 2.5 μg/ml) for 24 h
Method: FIG. 16. […] Freshly isolated human PBMCs (2×10^6) were stimulated with plate-bound α-CD3 (1.25 and 2.5 μg/ml) for 24 h. PBMCs were harvested and stained with fluorochrome-conjugated antibodies for CD45RA, CD8, CD69 and CD154 and T cell activation was monitored by flow cytometry. Representative CD8 versus CD69 and CD154 plots (numbers in outlined areas are the relative numbers in the gate) are shown.
(§1) Human blood was collected in 15 ml glass tubes containing Ficoll® gradient (GE Healthcare Life Sciences, Amersham, UK). Peripheral blood […] (PBMCs) were recovered by centrifugation (2200×rpm, 20 min at room temperature). PBMCs were incubated with PTPN2 inhibitor (compound 8) in serum-free RPMI 1640 for two hours at 37° C. and stimulated with plate-bound human α-CD3 (5 μg/ml; clone OKT-3) for 24 h. Cells were harvested and stained with fluorochrome-conjugated antibodies against α-CD8, α-CD45RA, α-CD154 and α-CD69 and analysed by flow cytometry to determine their activation status. To monitor T cells proliferation Calibrite Beads™ were added to the wells before cells were harvested.
Freshly isolated human PBMCs (2×10^6) were stimulated with plate-bound α-CD3 (1.25 and 2.5 μg/ml) for 24 h. PBMCs were harvested and stained with fluorochrome-conjugated antibodies for CD45RA, CD8, CD69 and CD154 and T cell activation was monitored by flow cytometry. […]

[4] = tested on: CD8+ human blood lymphocytes; assay: Human PBMC stimulation with plate-bound α-CD3, CD8+ T cell proliferation by flow cytometry with Calibrite Beads (FIG. 19); format: cell-based; settings: human PBMCs, plate-bound α-CD3 for 48 h and 72 h, versus vehicle control
Method: FIG. 19. […] Freshly isolated human PBMCs (2×10^6) were stimulated with plate-bound α-CD3 for (A) 48 h and (B) 72 h, in the presence of vehicle control or the PTPN2 inhibitor, compound 8 (as described herein). PBMCs were harvested and stained with fluorochrome-conjugated α-CD8. Calibrite Beads™ were added and T cell proliferation was monitored by flow cytometry. Results shown are means±SD for the indicated number of replicates.
as §1
Freshly isolated human PBMCs (2×10^6) were stimulated with plate-bound α-CD3 for (A) 48 h and (B) 72 h, in the presence of vehicle control or the PTPN2 inhibitor, compound 8 (as described herein). […] Calibrite Beads™ were added and T cell proliferation was monitored by flow cytometry. […]

[5] = tested on: Her-2 specific CAR T cells; assay: Her-2-specific CAR T cells incubated with 24JK-Her-2 sarcoma cells, secreted IFNγ by ELISA (FIG. 20); format: cell-based, mouse; settings: with 24JK-Her-2, 24JK or medium alone, versus vehicle control
Method: FIG. 20. […] Her-2-specific CAR T cells were incubated with Her-2 expressing 24JK sarcoma cells (24JK-Her-2) or 24JK sarcoma cells (24JK) or medium alone, in the presence of vehicle control or the PTPN2 inhibitor, compound 8 (described herein). T cell activation was assessed by monitoring for secreted IFNγ by ELISA (Mouse IFNγELISA Set, BD OptEIA™) according to the supplier's specifications. Tests were performed in triplicates (±SD).
Her-2-specific CAR T cells were incubated with Her-2 expressing 24JK sarcoma cells (24JK-Her-2) or 24JK sarcoma cells (24JK) or medium alone, in the presence of vehicle control or the PTPN2 inhibitor, compound 8 (described herein). T cell activation was assessed by monitoring for secreted IFNγ by ELISA (Mouse IFNγELISA Set, BD OptEIA™) according to the supplier's specifications. Tests were performed in triplicates (±SD).

[6] = tested on: murine CD8+ T cells; assay: PTPN2 siRNA knock down in splenocytes, CD8+ T cell numbers after α-CD3/α-CD28 stimulation (FIG. 17); format: cell-based, C57BL/6 mice; settings: 30 nM, 100 nM and 300 nM siRNA, α-CD3/α-CD28 (5 μg/ml each) for 48 h, versus GFP siRNA
Method: FIG. 17. Knock down of PTPN2 using siRNAs in murine CD8+ T cells leads to enhanced TCR-mediated T cell responses. Splenocytes (1×10^7) from C57BL/6 mice were transfected overnight with 100 nM GFP siRNA or 30 nM, 100 nM and 300 nM PTPN2 siRNA or 30 nM BLOCK-iT™ Fluorescent Oligo using the Amaxa Mouse T cell Nucleofactor Kit. (A) Transfection efficiency of CD8^+ T cells was monitored with BLOCK-iT™ Fluorescent Oligo (Fluor.Oligo) by flow cytometry. (B) Transfected splenocytes were stimulated with plate-bound α-CD3 (5 μg/ml) and α-CD28 (5 μg/ml) for 48 h and stained with fluorochrome-conjugated α-CD8. CD8^+ T cell numbers were quantified with Calibrite Beads™ by flow cytometry. Results shown are means±SD for the indicated number of replicates.
Ptpn2 was knocked down transiently in primary murine T cells using Ptpn2 ([…], SEQ ID NO: 14); Dharmacon Thermo Scientific, Waltham, Mass.); green fluorescent protein (GFP; CAAGCUGACCCUGAAGUUCdTdT; Dharmacon Thermo Scientific, Waltham, Mass.) siRNA was used as a control. […] T cell numbers were monitored by flow cytometry. For quantification Calibrite Beads (BD Biosciences) were added to the wells before cells were harvested.
Splenocytes (1×10^7) from C57BL/6 mice were transfected overnight with 100 nM GFP siRNA or 30 nM, 100 nM and 300 nM PTPN2 siRNA using the Amaxa Mouse T cell Nucleofactor Kit. […] CD8+ T cell numbers were quantified by flow cytometry. […]

Row | Molecule | polyclonal CD8+ T cell activation (CD44, CD62L, CD25, CD69 surface levels, MFI) [1] | activated phenotype of naive CD8+ T cells (CD44, CD69, CD25, CD62L MFI) [2] | TCR-mediated T cell activation (CD69, CD154) [3] | TCR-mediated T cell proliferation [4] | tumour-specific activation of Her-2 specific CAR T cells (secreted IFNγ) [5] | TCR-mediated T cell responses (CD8+ T cell number) [6]
1 | CCc1ccc(C(=O)NCCCCC(NC(=O)C(Cc2ccc(C(F)(F)P(=O)(O)O)cc2)NC(=O)C(Cc2ccccc2)NC(=O)COC2CC(C)CCC2C(C)C)C(N)=O)cc1 (stereo not drawn) [compound 8] | enhances polyclonal CD8^+ T cell activation ex vivo | stimulates naive CD8+ T cells to an activated phenotype | enhanced TCR-mediated T cell activation | enhanced TCR-mediated T cell proliferation | enhances the tumour-specific activation of Her-2 specific CAR T cells ex vivo | –
2 | AAGCCCAUAUGAUCACAGUCG (listed as RNA, chemistry not given here) [PTPN2 siRNA, siRNA used to knock down Ptpn2 transiently in primary murine T cells (Dharmacon)] | – | – | – | – | – | dose response increase in cell number
